Laboratory results as given in US20080234262A1 (Wyeth, priority 2007, published 2008).
pIC50: −log10 of the molar value.

How the values were obtained:
[1] = biological target: PI3K (Homo sapiens, UniProt P42336); experiment: Fluorescence polarization assay for PI3K; type: biochemical; settings: PI3Kα; read-out: PI3Kα IC50;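 note: PI3K kinase reaction on PIP2 with ATP, 30-60 min, product sensed by GST-GRP with red probe in fluorescence polarization (mP), controls without enzyme and at zero time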
[2] = system: breast line MDA468; experiment: In vitro cell culture growth assay (MTS), MDA468; type: cell-based, human; settings: MDA468 cells, three days after drug treatment
Summary of the method: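 Steps: plate cells; add inhibitors the next day; incubate 3 days; add MTS dye, which viable cells convert metabolically; measure absorbance at 490 nm; calculate percent of control growth relative to vehicle-treated cells in the same plate.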

[3] = system: prostate line LNCap; experiment: In vitro cell culture growth assay (MTS), LNCap; type: cell-based, human; settings: Homo sapiens, LNCaP, 72 h, LNCap cells, three days after drug treatment;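 note: viable cell density read by absorbance at 490 nm, growth expressed as percent of vehicle-treated cells on the same plate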

Chain of PI3K (P42336 whole entry): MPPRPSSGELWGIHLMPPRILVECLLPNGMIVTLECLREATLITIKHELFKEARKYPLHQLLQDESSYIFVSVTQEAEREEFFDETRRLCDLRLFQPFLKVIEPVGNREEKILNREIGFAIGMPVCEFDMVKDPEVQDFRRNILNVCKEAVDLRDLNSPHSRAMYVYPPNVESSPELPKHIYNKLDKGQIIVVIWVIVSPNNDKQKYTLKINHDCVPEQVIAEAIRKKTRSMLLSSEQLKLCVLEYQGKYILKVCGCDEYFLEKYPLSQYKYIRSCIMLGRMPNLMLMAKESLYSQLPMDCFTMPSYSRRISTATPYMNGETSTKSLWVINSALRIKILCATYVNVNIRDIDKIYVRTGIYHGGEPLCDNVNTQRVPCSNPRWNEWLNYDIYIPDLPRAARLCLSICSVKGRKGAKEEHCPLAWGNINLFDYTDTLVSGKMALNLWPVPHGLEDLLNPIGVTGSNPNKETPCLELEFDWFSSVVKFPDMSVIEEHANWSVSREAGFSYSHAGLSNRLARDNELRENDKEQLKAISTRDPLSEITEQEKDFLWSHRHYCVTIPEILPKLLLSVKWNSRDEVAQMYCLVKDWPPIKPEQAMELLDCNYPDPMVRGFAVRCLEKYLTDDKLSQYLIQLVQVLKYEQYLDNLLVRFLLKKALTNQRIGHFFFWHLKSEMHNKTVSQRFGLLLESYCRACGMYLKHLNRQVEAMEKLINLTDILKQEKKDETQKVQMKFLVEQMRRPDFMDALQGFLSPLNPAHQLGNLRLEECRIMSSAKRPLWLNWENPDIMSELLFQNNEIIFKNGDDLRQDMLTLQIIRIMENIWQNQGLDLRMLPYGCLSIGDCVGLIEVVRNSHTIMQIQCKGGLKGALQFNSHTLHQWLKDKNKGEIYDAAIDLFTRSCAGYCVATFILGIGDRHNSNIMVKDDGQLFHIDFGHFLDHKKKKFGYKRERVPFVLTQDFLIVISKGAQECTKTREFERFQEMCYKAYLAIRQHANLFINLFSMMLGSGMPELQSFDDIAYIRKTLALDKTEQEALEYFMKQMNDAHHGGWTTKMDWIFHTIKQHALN
Chain of PI3K (P27986 whole entry partner): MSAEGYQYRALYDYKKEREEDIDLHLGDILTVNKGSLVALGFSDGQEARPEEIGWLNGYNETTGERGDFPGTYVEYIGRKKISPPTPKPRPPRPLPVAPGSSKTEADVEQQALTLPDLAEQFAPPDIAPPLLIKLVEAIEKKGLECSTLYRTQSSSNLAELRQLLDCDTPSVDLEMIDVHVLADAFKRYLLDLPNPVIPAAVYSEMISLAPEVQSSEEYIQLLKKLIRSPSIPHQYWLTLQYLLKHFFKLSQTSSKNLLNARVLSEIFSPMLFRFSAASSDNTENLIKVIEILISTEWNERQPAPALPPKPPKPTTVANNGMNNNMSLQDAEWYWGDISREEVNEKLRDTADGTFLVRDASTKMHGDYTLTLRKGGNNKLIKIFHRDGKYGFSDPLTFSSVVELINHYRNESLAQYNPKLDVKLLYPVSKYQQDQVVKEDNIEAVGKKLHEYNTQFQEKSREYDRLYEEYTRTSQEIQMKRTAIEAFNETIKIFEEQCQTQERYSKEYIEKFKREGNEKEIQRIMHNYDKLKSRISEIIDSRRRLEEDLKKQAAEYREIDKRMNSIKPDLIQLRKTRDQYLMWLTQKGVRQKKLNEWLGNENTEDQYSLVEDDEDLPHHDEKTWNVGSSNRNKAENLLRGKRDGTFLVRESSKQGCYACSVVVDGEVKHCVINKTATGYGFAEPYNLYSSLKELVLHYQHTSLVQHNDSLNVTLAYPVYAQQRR

pIC50 [1] | pIC50 [3] | SMILES | pIC50 ([2]; Homo sapiens, 72 h) | pIC50 [2]
6.96 | 7.46 | CNC(=O)Nc1ccc(-c2nc(N3CCOCC3)c3cnn(C4CCN(Cc5ccc(F)nc5)CC4)c3n2)cc1 [Example 387, 1-[4-(1-{1-[(6-fluoropyridin-3-yl)methyl]piperidin-4-yl}-4-morpholin-4-yl-1H-pyrazolo[3,4-d]pyrimidin-6-yl)phenyl]-3-methylurea] | 7.00 | –
7.33 | 7.57 | CNC(=O)Nc1ccc(-c2nc(N3CCOCC3)c3cnn(C4CCN(Cc5ccc(Cl)nc5)CC4)c3n2)cc1 [Example 388, 1-[4-(1-{1-[(6-chloropyridin-3-yl)methyl]piperidin-4-yl}-4-morpholin-4-yl-1H-pyrazolo[3,4-d]pyrimidin-6-yl)phenyl]-3-methylurea] | – | 7.00
7.51 | 7.57 | CNC(=O)Nc1ccc(-c2nc(N3CCOCC3)c3cnn(C4CCN(Cc5ccc(Br)nc5)CC4)c3n2)cc1 [Example 389, 1-[4-(1-{1-[(6-bromopyridin-3-yl)methyl]piperidin-4-yl}-4-morpholin-4-yl-1H-pyrazolo[3,4-d]pyrimidin-6-yl)phenyl]-3-methylurea] | 7.00 | –
7.05 | 7.35 | CNC(=O)Nc1ccc(-c2nc(N3CCOCC3)c3cnn(C4CCN(Cc5cccnc5Cl)CC4)c3n2)cc1 [Example 390, 1-[4-(1-{1-[(2-chloropyridin-3-yl)methyl]piperidin-4-yl}-4-morpholin-4-yl-1H-pyrazolo[3,4-d]pyrimidin-6-yl)phenyl]-3-methylurea] | 7.00 | –
7.09 | 7.15 | CNC(=O)Nc1ccc(-c2nc(N3CCOCC3)c3cnn(C4CCN(Cc5cnccc5OC)CC4)c3n2)cc1 [Example 391, 1-[4-(1-{1-[(4-methoxypyridin-3-yl)methyl]piperidin-4-yl}-4-morpholin-4-yl-1H-pyrazolo[3,4-d]pyrimidin-6-yl)phenyl]-3-methylurea] | 6.70 | –
6.82 | 6.96 | CNC(=O)Nc1ccc(-c2nc(N3CCOCC3)c3cnn(C4CCN(Cc5cncc(F)c5)CC4)c3n2)cc1 [Example 392, 1-[4-(1-{1-[(5-fluoropyridin-3-yl)methyl]piperidin-4-yl}-4-morpholin-4-yl-1H-pyrazolo[3,4-d]pyrimidin-6-yl)phenyl]-3-methylurea] | 6.22 | –
7.14 | 7.02 | CNC(=O)Nc1ccc(-c2nc(N3CCOCC3)c3cnn(C4CCN(Cc5cncc(Br)c5)CC4)c3n2)cc1 [Example 393, 1-[4-(1-{1-[(5-bromopyridin-3-yl)methyl]piperidin-4-yl}-4-morpholin-4-yl-1H-pyrazolo[3,4-d]pyrimidin-6-yl)phenyl]-3-methylurea] | 6.22 | –
7.46 | 7.42 | CNC(=O)Nc1ccc(-c2nc(N3CCOCC3)c3cnn(C4CCN(Cc5ccccc5Cl)CC4)c3n2)cc1 [Example 396, 1-(4-{1-[1-(2-chlorobenzyl)piperidin-4-yl]-4-morpholin-4-yl-1H-pyrazolo[3,4-d]pyrimidin-6-yl}phenyl)-3-methylurea] | 6.70 | –
7.24 | 6.82 | CNC(=O)Nc1ccc(-c2nc(N3CCOCC3)c3cnn(C4CCN(Cc5ccc(OC)c(O)c5)CC4)c3n2)cc1 [Example 398, 1-(4-{1-[1-(3-hydroxy-4-methoxybenzyl)piperidin-4-yl]-4-morpholin-4-yl-1H-pyrazolo[3,4-d]pyrimidin-6-yl}phenyl)-3-methylurea] | 6.22 | –
7.43 | 7.22 | CNC(=O)Nc1ccc(-c2nc(N3CCOCC3)c3cnn(C4CCN(Cc5ccccc5O)CC4)c3n2)cc1 [Example 399, 1-(4-{1-[1-(2-hydroxybenzyl)piperidin-4-yl]-4-morpholin-4-yl-1H-pyrazolo[3,4-d]pyrimidin-6-yl}phenyl)-3-methylurea] | 6.52 | –
7.37 | 7.15 | CNC(=O)Nc1ccc(-c2nc(N3CCOCC3)c3cnn(C4CCN(Cc5cccc(OC)c5)CC4)c3n2)cc1 [Example 400, 1-(4-{1-[1-(3-methoxybenzyl)piperidin-4-yl]-4-morpholin-4-yl-1H-pyrazolo[3,4-d]pyrimidin-6-yl}phenyl)-3-methylurea] | 6.30 | –

Continued, compound first:

SMILES | pIC50 [1] | pIC50 [3] | pIC50 ([2]; Homo sapiens, 72 h) | pIC50 [2]
O=C(NCCO)Nc1ccc(-c2nc(N3CCOCC3)c3cnn(C4CCN(C(=O)c5ccccc5)CC4)c3n2)cc1 [Example 385, 1-{4-[1-(1-benzoylpiperidin-4-yl)-4-morpholin-4-yl-1H-pyrazolo[3,4-d]pyrimidin-6-yl]phenyl}-3-(2-hydroxyethyl)urea] | 6.64 | 6.10 | 6.15 | –
CNCCNC(=O)Nc1ccc(-c2nc(N3CCOCC3)c3cnn(C4CCN(C(=O)c5ccccc5)CC4)c3n2)cc1 [Example 386, 1-{4-[1-(1-benzoylpiperidin-4-yl)-4-morpholin-4-yl-1H-pyrazolo[3,4-d]pyrimidin-6-yl]phenyl}-3-[2-(methylamino)ethyl]urea] | 7.32 | 5.92 | 5.85 | –
CNC(=O)Nc1ccc(-c2nc(N3CCOCC3)c3cnn(C4CCN(Cc5ccc(Cl)cc5)CC4)c3n2)cc1 [Example 394, 1-(4-{1-[1-(4-chlorobenzyl)piperidin-4-yl]-4-morpholin-4-yl-1H-pyrazolo[3,4-d]pyrimidin-6-yl}phenyl)-3-methylurea] | 7.74 | 7.22 | 6.52 | –
CNC(=O)Nc1ccc(-c2nc(N3CCOCC3)c3cnn(C4CCN(Cc5cccc(Cl)c5)CC4)c3n2)cc1 [Example 395, 1-(4-{1-[1-(3-chlorobenzyl)piperidin-4-yl]-4-morpholin-4-yl-1H-pyrazolo[3,4-d]pyrimidin-6-yl}phenyl)-3-methylurea] | 7.38 | 7.00 | 6.30 | –
CNC(=O)Nc1ccc(-c2nc(N3CCOCC3)c3cnn(C4CCN(Cc5cccc(O)c5)CC4)c3n2)cc1 [Example 397, 1-(4-{1-[1-(3-hydroxybenzyl)piperidin-4-yl]-4-morpholin-4-yl-1H-pyrazolo[3,4-d]pyrimidin-6-yl}phenyl)-3-methylurea] | 7.55 | 6.85 | 6.40 | –
CNC(=O)Nc1ccc(-c2nc(N3CCOCC3)c3cnn(C4CCN(Cc5ccco5)CC4)c3n2)cc1 [Example 402, 1-(4-{1-[1-(2-furylmethyl)piperidin-4-yl]-4-morpholin-4-yl-1H-pyrazolo[3,4-d]pyrimidin-6-yl}phenyl)-3-methylurea] | 7.20 | 7.57 | 6.30 | –
CNC(=O)Nc1ccc(-c2nc(N3CCOCC3)c3cnn(C4CCOCC4)c3n2)cc1 [Example 403, 1-methyl-3-{4-[4-morpholin-4-yl-1-(tetrahydro-2H-pyran-4-yl)-1H-pyrazolo[3,4-d]pyrimidin-6-yl]phenyl}urea] | 7.35 | 6.99 | 6.40 | –
O=C(Nc1ccc(-c2nc(N3CCOCC3)c3cnn(C4CCN(Cc5cccnc5)CC4)c3n2)cc1)Nc1cccs1 [Example 404, 1-(4-{4-morpholin-4-yl-1-[1-(pyridin-3-ylmethyl)piperidin-4-yl]-1H-pyrazolo[3,4-d]pyrimidin-6-yl}phenyl)-3-(2-thienyl)urea] | 8.05 | 7.57 | 7.00 | –
O=C(Nc1ccc(-c2nc(N3CCOCC3)c3cnn(C4CCN(Cc5cccnc5)CC4)c3n2)cc1)NC1CC1 [Example 405, 1-cyclopropyl-3-(4-{4-morpholin-4-yl-1-[1-(pyridin-3-ylmethyl)piperidin-4-yl]-1H-pyrazolo[3,4-d]pyrimidin-6-yl}phenyl)urea] | 6.36 | 7.57 | 7.00 | –
CNC(=NC#N)Nc1ccc(-c2nc(N3CCOCC3)c3cnn(C4CCN(Cc5cccnc5)CC4)c3n2)cc1 [Example 407, 2-cyano-1-methyl-3-(4-{4-morpholin-4-yl-1-[1-(pyridin-3-ylmethyl)piperidin-4-yl]-1H-pyrazolo[3,4-d]pyrimidin-6-yl}phenyl)guanidine] | 6.11 | 5.77 | 5.42 | –
CCNC(=NC#N)Nc1ccc(-c2nc(N3CCOCC3)c3cnn(C4CCN(Cc5cccnc5)CC4)c3n2)cc1 [Example 408, 2-cyano-1-ethyl-3-(4-{4-morpholin-4-yl-1-[1-(pyridin-3-ylmethyl)piperidin-4-yl]-1H-pyrazolo[3,4-d]pyrimidin-6-yl}phenyl)guanidine] | 6.04 | 6.05 | 5.49 | –
N#CNC(=O)Nc1ccc(-c2nc(N3CCOCC3)c3cnn(C4CCN(Cc5cccnc5)CC4)c3n2)cc1 [Example 409, N′-cyano-N-(4-{4-morpholin-4-yl-1-[1-(pyridin-3-ylmethyl)piperidin-4-yl]-1H-pyrazolo[3,4-d]pyrimidin-6-yl}phenyl)carbamimidic acid] | 6.44 | 6.10 | 5.60 | –
COC(=NC#N)Nc1ccc(-c2nc(N3CCOCC3)c3cnn(C4CCN(Cc5cccnc5)CC4)c3n2)cc1 [Example 410, methyl N′-cyano-N-(4-{4-morpholin-4-yl-1-[1-(pyridin-3-ylmethyl)piperidin-4-yl]-1H-pyrazolo[3,4-d]pyrimidin-6-yl}phenyl)imidocarbamate] | 6.23 | 5.66 | 5.89 | –
N#CN=C(N)Nc1ccc(-c2nc(N3CCOCC3)c3cnn(C4CCN(C(=O)c5cccnc5)CC4)c3n2)cc1 [Example 411, 2-cyano-1-(4-{4-morpholin-4-yl-1-[1-(pyridin-3-ylcarbonyl)piperidin-4-yl]-1H-pyrazolo[3,4-d]pyrimidin-6-yl}phenyl)guanidine] | 6.46 | 4.70 | 4.92 | –
